Values quoted from earlier work in patent US11957723B2, “Methods and uses of microbiome compositions, components, or metabolites for treating neurodegenerative diseases” (MarvelBiome, Inc., priority 2021, dated 2024).

System: ALS patients

In the case of `Nc1nc2ccc(OC(F)(F)F)cc2s1` [Riluzole], the life span expansion (ALS patients in the early stages) is listed as “about a three-month life span expansion” and the therapeutic benefit (ALS patients in the late stages) is listed as “no therapeutic benefit”.
